Data: US8912124B2, “Use of derivatives of (1-cyanocyclopropyl)phenylphosphinic acid, esters thereof and/or salts thereof for enhancing tolerance in plants to abiotic stress” (Bayer Cropscience AG, priority 2010, dated 2014)

Key:
Type in all cases: in vivo
BRSNS=Brassica napus = assay: Drought stress test on crop plants, spray application, efficacy (EF) on Brassica napus; conditions: percentage reduction in intensity of damage, mean of three results
Protocol: (§1) Seeds of monocotyledonous and dicotyledonous crop plants were placed in sandy loam in wood-fiber pots, covered with soil and cultivated in a greenhouse under good growth conditions. The test plants were treated at the early leaf stage (BBCH10-BBCH13). To ensure uniform water supply before commencement of stress, the potted plants were supplied with the maximum amount of water immediately beforehand by dam irrigation and, after application, transferred in plastic inserts in order to prevent subsequent, excessively rapid drying. The inventive compounds, formulated in the form of wettable powders (WP), wettable granules (WG), suspension concentrates (SC) or emulsion concentrates (EC), were sprayed onto the green parts of the plants as an aqueous suspension at an equivalent water application rate of 600 I/ha with addition of 0.2% wetting agent (agrotin). Substance application was followed immediately by stress treatment of the plants (cold or drought stress). For cold stress treatment, the plants are kept under the following controlled conditions: • “day”: 12 hours with illumination at 8° C. • “night”: 12 hours without illumination at 1° C.
(§2) Drought stress is induced by gradual drying out under the following conditions: • “day”: 14 hours with illumination at 26° C. • “night”: 10 hours without illumination at 18° C.
The duration of the respective stress phases was guided mainly by the state of the untreated, stressed control plants and thus varied from crop to crop. It was ended (by re-irrigating or transfer to a greenhouse with good growth conditions) as soon as irreversible damage was observed on the untreated, stressed control plants. In the case of dicotyledonous crops, for example oilseed rape and soya, the duration of the drought stress phase varied between 3 and 5 days, in the case of monocotyledonous crops, for example wheat, barley or corn, between 6 and 10 days. The duration of the cold stress phase varied between 12 and 14 days.
The end of the stress phase was followed by an approx. 5-7-day recovery phase, during which the plants were once again kept under good growth conditions in a greenhouse. In order to rule out any influence of the effects observed by any fungicidal action of the test compounds, it was additionally ensured that the tests proceed without fungal infection and without infection pressure.
After the recovery phase had ended, the intensities of damage were rated in visual comparison to untreated, unstressed controls of the same age (in the case of drought stress) or the same growth stage (in the case of cold stress). The intensity of damage was first assessed as a percentage (100%=plants have died, 0%=like control plants). These values were then used to calculate the efficacy of the test compounds (=percentage reduction in the intensity of damage as a result of substance application) by the following formula: […]
DVus: damage value of the untreated, stressed control
DVts: damage value of the plants treated with test compound
Tables A.1, A.2 and A.3 show the efficacies of selected inventive compounds of the formula (I) and of the formula (II) on different crop plants (BRSNS=Brassica napus (A.1;) TRZAS=Triticum aestivum (A.2); ZEAMX=Zea mays (A.3) under drought stress.
The values stated each represent mean values from three results of the same test.

ZEAMX=Zea mays = assay: Drought stress test on crop plants, spray application, efficacy (EF) on Zea mays; conditions: percentage reduction in intensity of damage, mean of three results
Protocol: as §1, §2
The duration of the respective stress phases was guided mainly by the state of the untreated, stressed control plants and thus varied from crop to crop. It was ended (by re-irrigating or transfer to a greenhouse with good growth conditions) as soon as irreversible damage was observed on the untreated, stressed control plants. […]
(§3) After the recovery phase had ended, the intensities of damage were rated in visual comparison to untreated, unstressed controls of the same age (in the case of drought stress) or the same growth stage (in the case of cold stress). The intensity of damage was first assessed as a percentage (100%=plants have died, 0%=like control plants). […]

TRZAS=Triticum aestivum = assay: Drought stress test on crop plants, spray application, efficacy (EF) on Triticum aestivum; conditions: dosage 25 g/ha, percentage reduction in intensity of damage, mean of three results
Protocol: Seeds of monocotyledonous and dicotyledonous crop plants were placed in sandy loam in wood-fiber pots, covered with soil and cultivated in a greenhouse under good growth conditions. The test plants were treated at the early leaf stage (BBCH10-BBCH13). To ensure uniform water supply before commencement of stress, the potted plants were supplied with the maximum amount of water immediately beforehand by dam irrigation and, after application, transferred in plastic inserts in order to prevent subsequent, excessively rapid drying. The inventive compounds, formulated in the form of wettable powders (WP), wettable granules (WG), suspension concentrates (SC) or emulsion concentrates (EC), were sprayed onto the green parts of the plants as an aqueous suspension at an equivalent water application rate of 600 I/ha with addition of 0.2% wetting agent (agrotin). Substance application was followed immediately by stress treatment of the plants (cold or drought stress). […]
as §3

Structure (SMILES)	EF (BRSNS) (BRSNS=Brassica napus; dosage 25 g/ha) [%]	further results
CCOC(=O)c1cccc(P(=O)(OCC)C2(C#N)CC2)c1 (stereo not shown) [Compound 2-37]	>5	
N#CC1(P(=O)(OC2CCCCC2)c2ccccc2)CC1 (stereo not shown) [Compound 2-142]	>5	
CCOP(=O)(c1ccccc1OC)C1(C#N)CC1 (stereo not shown) [Compound 2-18]	>5	
N#CC1(P(=O)(OCc2ccccc2)c2ccccc2)CC1 (stereo not shown) [Compound 2-155]	>5	EF (ZEAMX) (ZEAMX=Zea mays; dosage 25 g/ha): >5%
CCCOP(=O)(c1ccccc1)C1(C#N)CC1 (stereo not shown) [Compound 2-130]	>5	EF (ZEAMX) (ZEAMX=Zea mays; dosage 25 g/ha): >5%
CCOP(=O)(c1cc(Cl)cc(Cl)c1)C1(C#N)CC1 (stereo not shown) [Compound 2-111]	>5	
CCOP(=O)(c1cccc(OC)c1)C1(C#N)CC1 (stereo not shown) [Compound 2-19]	>5	
CCOP(=O)(c1cccc(C(=O)O)c1)C1(C#N)CC1 (stereo not shown) [Compound 2-34]	>5	
CCOP(=O)(c1cccc(C)c1)C1(C#N)CC1 (stereo not shown) [Compound 2-16]		EF (BRSNS) (BRSNS=Brassica napus; dosage 250 g/ha): >5%
CCCOP(=O)(c1ccccc1Cl)C1(C#N)CC1 (stereo not shown) [Compound 2-159]	>5	
CCOP(=O)(c1ccc(C)cc1)C1(C#N)CC1 (stereo not shown) [Compound 2-17]		EF (BRSNS) (BRSNS=Brassica napus; dosage 250 g/ha): >5%
CCOP(=O)(c1ccccc1)C1(C#N)CC1 (stereo not shown) [Compound 2-2, ethyl (1-cyanocyclopropyl)phenylphosphinate]	>5	EF (TRZAS) (TRZAS=Triticum aestivum): >5%
CC(C)COP(=O)(c1ccccc1)C1(C#N)CC1 (stereo not shown) [Compound 2-135]	>5	EF (TRZAS) (TRZAS=Triticum aestivum): >5%
CCCOP(=O)(c1ccccc1F)C1(C#N)CC1 (stereo not shown) [Compound 2-158]	>5	EF (ZEAMX) (ZEAMX=Zea mays; dosage 250 g/ha): >5%
